From PMC9562916, “Investigation of the Phenolic Component Bioavailability Using the In Vitro Digestion/Caco-2 Cell Model, as well as the Antioxidant Activity in Chinese Red Wine” (Foods, 2022)
Where two headings read alike, the source gives them in different places. Marks after values point to notes of the source that are not given here.

How the values were obtained:
[1] = PC content of red wine before and after in vitro simulated gastrointestinal digestion (HPLC); type: in vitro ADME
Procedure: The digestion procedure was carried out by adapting the method of Brodkorb et al. and Gómez et al.. […] One milliliter (50 units/mL) of porcine amylase was prepared in a 15 mM Na₃PO₄ buffer solution (pH adjusted to 6.8) containing 1.5 mM CaCl2, and it was added to the red wine solution. After 5 min, 4.5 mL of 0.12 M HCl was added to the mixture to adjust the pH to 2.4. One milliliter of porcine pepsin (0.02 mg/L) was dissolved in a 20 mM HCl solution. The mixture was then maintained at 37 °C for 120 min. The digestion mixture was then centrifuged at 8000× g for 15 min to obtain samples from the gastric digestion phase. […] The mixture was incubated at pH 6.5 at 37 °C for 3 h before being centrifuged. The extracts of the intestinal phase were the supernatants. The same operation was done three times, and each sample was stored in a refrigerator (−20 °C) immediately for further analysis.
The Pati method was adopted, with slight modifications, to measure the content of the PCs. The Agilent 1100 series HPLC instrument was used; it was equipped with a degasser, quaternary pump solvent delivery, a DAD system, and a single quadrupole mass detector coupled with an electrospray ionization LC–MS interface. Briefly, th samples were injected into a Zorbax SB C18 reversed-phase column (5 µm,150 × 2.1 mm, Agilent Technologies, Santa Clara, CA, USA) using an autosampler after filtering through 0.45 µm cellulose acetate syringe filters. The column temperature was kept at 30 °C, the injection volume was 10 µL, and the flow rate was 0.3 mL/min. The eluents were water and formic acid in a 99:1 (v/v) (A) ratio and 100% acetonitrile (B). […] The MS configuration was as follows: ESI, negative ion mode, nebulizer pressure of 30 psi, a dry gas flow rate of 10 mL/min, dry gas temperature of 350 °C, and a scan rate of 100~1200 m/z. PCs were determined according to their retention times, UV/VIS spectra, and high-resolution MS spectra, in addition to a comparison with the standards. […] Putative annotations were made using spectral features and literature information on the chromatographic properties and mass spectra records from the metabolome database. A standard curve was drawn using methanol solutions with different concentrations as the standards. The limits of detection and quantitation were calculated according to the signal-to-noise ratio (limit of detection: signal-to-noise ratio ≥ 3; limit of quantitation: signal-to-noise ratio ≥ 10). […] PCs All of the samples were determined in triplicate.

[2] = Caco-2 transepithelial transport assay of digested red wine; type: in vitro ADME, human; conditions: human
Procedure: (§1) Caco-2 cells were inoculated following the method of Hubatsch et al. […] Briefly, a 5% v/v of CO2 incubator at 37 °C was used to house the cells. […] Caco-2 cells were sub-cultured when they reached 80-90% of the adherent growth by treating them with a 0.05% v/v of trypsin-EDTA solution. The culture between passages 35 and 40 was used for the following experiment. Transport experiments were performed according to the method of Wu et al. with slight modifications. First, 1.0 × 10^5 Caco-2 cells were inoculated onto 12 mm transparent cell culture plates (Transwell). Media were carefully injected into the apical (0.5 mL) and basolateral (1.5 mL) sides of the Transwell plates. The cell culture medium had to be replaced every other day until the cells formed a monolayer. The integrity and transport ability of the Caco-2 cell monolayer were evaluated by measuring the trans-epithelial electrical resistance (TEER) with a MilliCell voltammeter (Millicell ERS-2, Merck Millipore, Billerica, MA, USA). […] When the cell activity exceeded 0.9, a transport experiment was conducted. The apical side was injected with a digested red wine sample (0.5 mL) and was thoroughly mixed with […] Balanced Salt Solution (HBSS) buffer solution. […] The cells were then cultured in a 37 °C, 5% CO2 incubator. Then, 0.25 mL samples were separately taken from the basolateral side of the monolayer. An equal volume of HBSS buffer was then added every half hour from the beginning of the culture until the end of the culture at 6 h. The collected samples were subsequently filtered and placed in the sample bottle for further HPLC analysis. This experiment was repeated several times to collect enough samples for the next antioxidant test. […] The Agilent 1100 series HPLC instrument was used; it was equipped with a degasser, quaternary pump solvent delivery, a DAD system, and a single quadrupole mass detector coupled with an electrospray ionization LC-MS interface. […] The column temperature was kept at 30 °C, the injection volume was 10 μL, and the flow rate was 0.3 mL/min. The eluents were water and formic acid in a 99:1 (v/v) (A) ratio and 100% acetonitrile (B). The gradient elution procedure was as follows: (1) 3% B solvent at 0 min, (2) 3 to 16% B solvent at 10 min, (3) 16 to 20% B solvent at 30 min, and (4) 20% B solvent maintained until the procedure was completed. The MS configuration was as follows: ESI, negative ion mode, nebulizer pressure of 30 psi, a dry gas flow rate of 10 mL/min, dry gas temperature of 350 °C, and a scan rate of 100~1200 m/z. PCs were determined according to their retention times, UV/VIS spectra, and high-resolution MS spectra, in addition to a comparison with the standards. […] If a standard was unavailable, a structurally related compound was used. Putative annotations were made using spectral features and literature information on the chromatographic properties and mass spectra records from the metabolome database. A standard curve was drawn using methanol solutions with different concentrations as the standards. […] PCs All of the samples were determined in triplicate.

Caco-2 cell monolayer = experiment: as above; type: in vitro ADME, human
Procedure: as §1

[3] = Cabernet red wine, after simulated gastrointestinal digestion
[4] = Helanshan red wine, after simulated gastrointestinal digestion
[5] = Tianzhu red wine, after simulated gastrointestinal digestion
[6] = Caco-2, apical to basolateral, digested Cabernet red wine, read-out: Apparent Permeability Coefficients, Cabernet
[7] = Caco-2, apical to basolateral, digested Helanshan red wine, read-out: Apparent Permeability Coefficients, Helanshan
[8] = Caco-2, apical to basolateral, digested Tianzhu red wine, read-out: Apparent Permeability Coefficients, Tianzhu
[9] = Cabernet red wine, digested sample, basolateral side of Caco-2 monolayer
[10] = Helanshan red wine, digested sample, basolateral side of Caco-2 monolayer
[11] = Tianzhu red wine, digested sample, basolateral side of Caco-2 monolayer
[12] = apical to basolateral, digested Cabernet red wine
[13] = apical to basolateral, digested Helanshan red wine
[14] = apical to basolateral, digested Tianzhu red wine

| Compound | PC Contents, Cabernet, After Digestion [1, 3] | PC Contents, Helanshan, After Digestion [1, 4] | PC Contents, Tianzhu, After Digestion [1, 5] | Papp at 6 h [2, 6] | Papp at 6 h [2, 7] | Papp at 6 h [2, 8] | PC Contents, Cabernet, Transmembrane (Caco-2 cell monolayer; [9]) | PC Contents, Helanshan, Transmembrane (Caco-2 cell monolayer; [10]) | PC Contents, Tianzhu, Transmembrane (Caco-2 cell monolayer; [11]) | PC Contents, Cabernet, After Digestion [1] | PC Contents, Helanshan, After Digestion [1] | PC Contents, Tianzhu, After Digestion [1] | Apparent Permeability Coefficients, Cabernet (Caco-2 cell monolayer; Caco-2) | Apparent Permeability Coefficients, Helanshan (Caco-2 cell monolayer; Caco-2) | Apparent Permeability Coefficients, Tianzhu (Caco-2 cell monolayer; Caco-2) | PC Contents, Cabernet, Transmembrane (Caco-2 cell monolayer; Caco-2) | PC Contents, Helanshan, Transmembrane (Caco-2 cell monolayer; Caco-2) | PC Contents, Tianzhu, Transmembrane (Caco-2 cell monolayer; Caco-2) | further results |
| --- | --- | --- | --- | --- | --- | --- | --- | --- | --- | --- | --- | --- | --- | --- | --- | --- | --- | --- | --- |
| C[C@@H]1O[C@@H](O[C@H]2C(=O)c3c(O)cc(O)cc3O[C@@H]2c2ccc(O)c(O)c2)[C@H](O)[C@H](O)[C@H]1O [Astilbin] | 28.22 ± 1.07 ^b mg/L | 24.63 ± 1.13 ^b mg/L | 25.36 ± 1.32 ^b mg/L | 2.46 ± 0.23 ×10⁻⁶ cm/s | 2.37 ± 0.34 ×10⁻⁶ cm/s | 2.41 ± 0.26 ×10⁻⁶ cm/s | 1.11 ± 0.05 ^a mg/L | 0.93 ± 0.04 ^a mg/L | 5.05 ± 0.19 ^a mg/L |  |  |  |  |  |  |  |  |  |  |
| O=C(/C=C/c1ccc(O)c(O)c1)O[C@@H](C(=O)O)[C@@H](O)C(=O)O [Caftaric acid] | 3.01 ± 0.17 ^b mg/L |  | 5.35 ± 0.23 ^b mg/L | 8.93 ± 1.02 ×10⁻⁶ cm/s | 8.77 ± 1.28 ×10⁻⁶ cm/s | 8.45 ± 1.31 ×10⁻⁶ cm/s | 0.43 ± 0.01 ^a mg/L | 0.49 ± 0.02 ^a mg/L | 1.07 ± 0.03 ^a mg/L |  |  |  |  |  |  |  |  |  |  |
| Oc1cc(O)c2c(c1)O[C@H](c1ccc(O)c(O)c1)[C@H](O)C2 [Epicatechin] |  |  |  | 11.4 ± 1.77 ×10⁻⁶ cm/s | 11.5 ± 1.53 ×10⁻⁶ cm/s | 11.4 ± 1.46 ×10⁻⁶ cm/s |  |  |  |  |  |  |  |  |  |  |  |  |  |
| CCOC(=O)c1cc(O)c(O)c(O)c1 [Ethyl gallate] | 38.42 ± 1.88 ^b mg/L | 30.18 ± 0.94 ^b mg/L | 40.83 ± 1.51 ^b mg/L | 17.4 ± 2.73 ×10⁻⁶ cm/s | 17.9 ± 2.88 ×10⁻⁶ cm/s | 18.3 ± 3.02 ×10⁻⁶ cm/s | 10.70 ± 0.33 ^a mg/L | 8.64 ± 0.36 ^a mg/L | 8.13 ± 0.28 ^a mg/L |  |  |  |  |  |  |  |  |  |  |
| O=C(O)c1cc(O)c(O)c(O)c1 [Gallic acid] | 9.08 ± 0.44 ^b mg/L |  | 6.91 ± 0.26 ^b mg/L |  |  |  | 4.61 ± 0.23 ^a mg/L | 2.53 ± 0.14 ^a mg/L | 1.38 ± 0.05 ^a mg/L |  |  |  |  |  |  |  |  |  | bioavailability ([2]; Caco-2): 24%; Papp at 6 h ([2]; Caco-2, Apparent Permeability Coefficients, Cabernet): 31.7 ± 3.82 ×10⁻⁶ cm/s; Papp at 6 h ([2]; Caco-2, Apparent Permeability Coefficients, Helanshan): 30.9 ± 3.99 ×10⁻⁶ cm/s; Papp at 6 h ([2]; Caco-2, Apparent Permeability Coefficients, Tianzhu): 32.8 ± 4.13 ×10⁻⁶ cm/s |
| O=c1c(OC2O[C@H](CO)[C@@H](O)[C@H](O)[C@H]2O)c(-c2cc(O)c(O)c(O)c2)oc2cc(O)cc(O)c12 (some centres unmarked) [Myricetin-3-glc] | 36.91 ± 1.10 ^b mg/L | 28.45 ± 1.51 ^b mg/L | 43.22 ± 1.34 ^b mg/L |  |  |  | 0.81 ± 0.04 ^a mg/L | 0.64 ± 0.02 ^a mg/L | 8.61 ± 0.43 ^a mg/L |  |  |  |  |  |  |  |  |  | Apparent Permeability Coefficients, Cabernet (Caco-2 cell monolayer; [12]): 1.38 ± 0.17 ^a ×10^−6 cm/s; Apparent Permeability Coefficients, Helanshan (Caco-2 cell monolayer; [13]): 1.41 ± 0.21 ^a ×10^−6 cm/s; Apparent Permeability Coefficients, Tianzhu (Caco-2 cell monolayer; [14]): 1.35 ± 0.19 ^a ×10^−6 cm/s |
| COc1cc(-c2[o+]c3cc(O)cc(O)c3cc2OC2OC(COC(C)=O)C(O)C(O)C2O)cc(O)c1O (centres unmarked) [Petunidin-3-acglc] |  |  |  |  |  |  |  |  |  | 1.05 ± 0.05 ^b mg/L | 0.98 ± 0.05 ^b mg/L | 1.17 ± 0.04 ^b mg/L | 11.53 ± 2.01 ^a ×10^−6 cm/s | 11.78 ± 2.11 ^a ×10^−6 cm/s | 11.46 ± 2.05 ^a ×10^−6 cm/s | 0.19 ± 0.008 ^a mg/L | 0.18 ± 0.005 ^a mg/L | 0.23 ± 0.008 ^a mg/L |  |
| COc1cc(-c2[o+]c3cc(O)cc(O)c3cc2O[C@@H]2O[C@H](CO)[C@@H](O)[C@H](O)[C@H]2O)cc(O)c1O [Petunidin-3-glc] |  |  |  |  |  |  |  |  |  | 5.79 ± 0.27 ^b mg/L | 4.98 ± 0.19 ^b mg/L | 5.33 ± 0.21 ^b mg/L | 16.89 ± 2.96 ^a ×10^−6 cm/s | 17.56 ± 3.32 ^a ×10^−6 cm/s | 17.13 ± 3.01 ^a ×10^−6 cm/s | 1.56 ± 0.07 ^a mg/L | 1.40 ± 0.05 ^a mg/L | 1.06 ± 0.04 ^a mg/L |  |
| O=c1c(O[C@@H]2O[C@H](CO)[C@@H](O)[C@H](O)[C@H]2O)c(-c2ccc(O)c(O)c2)oc2cc(O)cc(O)c12 [Quercetin-3-glc] | 202.22 ± 10.52 ^b mg/L | 145.43 ± 5.38 ^b mg/L | 188.45 ± 8.29 ^b mg/L |  |  |  | 7.47 ± 0.23 ^a mg/L | 5.10 ± 0.28 ^a mg/L | 37.54 ± 1.95 ^a mg/L |  |  |  |  |  |  |  |  |  | Apparent Permeability Coefficients, Cabernet (Caco-2 cell monolayer; [12]): 2.31 ± 0.27 ^a ×10^−6 cm/s; Apparent Permeability Coefficients, Helanshan (Caco-2 cell monolayer; [13]): 2.19 ± 0.26 ^a ×10^−6 cm/s; Apparent Permeability Coefficients, Tianzhu (Caco-2 cell monolayer; [14]): 2.23 ± 0.22 ^a ×10^−6 cm/s |
| COc1cc(-c2oc3cc(O)cc(O)c3c(=O)c2O[C@@H]2O[C@H](CO)[C@@H](O)[C@H](O)[C@H]2O)cc(OC)c1O [Syringetin-3-glc] |  |  |  |  |  |  |  |  |  | 26.34 ± 0.90 ^b mg/L | 20.17 ± 1.01 ^b mg/L | 30.19 ± 1.03 ^b mg/L | 2.91 ± 0.21 ^a ×10^−6 cm/s | 2.81 ± 0.29 ^a ×10^−6 cm/s | 2.88 ± 0.23 ^a ×10^−6 cm/s | 1.23 ± 0.04 ^a mg/L | 0.91 ± 0.03 ^a mg/L | 6.01 ± 0.22 ^a mg/L |  |
| Procyanidin dimer |  |  |  |  |  |  |  |  |  | 5.64 ± 0.26 ^b mg/L | 5.98 ± 0.27 ^b mg/L | 7.64 ± 0.32 ^b mg/L | 6.41 ± 1.05 ^a ×10^−6 cm/s | 6.48 ± 0.98 ^a ×10^−6 cm/s | 6.54 ± 0.86 ^a ×10^−6 cm/s | 0.58 ± 0.03 ^a mg/L | 0.62 ± 0.02 ^a mg/L | 1.52 ± 0.08 ^a mg/L |  |
